Data from ChEMBL document CHEMBL1144946, “4-Amino-2-(aryl)-butylbenzamides and Their conformationally constrained analogues. Potent antagonists of the human neurokinin-2 (NK(2)) receptor” (Bioorg Med Chem Lett, 2003).

How the values were obtained:
Oryctolagus cuniculus = species: Oryctolagus cuniculus; test: Ability to antagonise the contractile effects of the selective NK2 receptor agonist [B-ala8]NKA in the rabbit pulmonary artery (RPA); assay type: functional; conditions: read-out: pA2 (converted)
Substance-K receptor [1] = biological target: T1, Substance-K receptor (Homo sapiens, UniProt P21452); test: Binding affinity for human tachykinin receptor 2 expressed in CHO cells using [125I]- NKA radioligand; assay type: cell-based
T1 sequence (P21452 whole entry): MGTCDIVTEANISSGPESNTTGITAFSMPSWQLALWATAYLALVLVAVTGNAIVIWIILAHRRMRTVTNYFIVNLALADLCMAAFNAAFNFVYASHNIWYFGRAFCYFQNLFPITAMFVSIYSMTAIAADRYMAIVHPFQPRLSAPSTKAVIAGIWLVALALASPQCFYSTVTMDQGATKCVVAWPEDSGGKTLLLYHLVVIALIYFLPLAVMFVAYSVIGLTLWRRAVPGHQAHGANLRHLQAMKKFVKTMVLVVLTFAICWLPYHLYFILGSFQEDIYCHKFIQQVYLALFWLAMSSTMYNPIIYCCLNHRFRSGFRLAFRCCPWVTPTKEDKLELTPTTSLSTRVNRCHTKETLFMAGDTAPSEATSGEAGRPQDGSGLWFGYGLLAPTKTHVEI

Substance-K receptor [2] = biological target: T1, Substance-K receptor; test: Binding affinity towards human Tachykinin receptor 2 using [125I]- NKA radioligand expressed in CHO cells; assay type: cell-based
[3] = biological target: T2, Substance-K receptor (Rattus norvegicus) (UniProt P16610); test: Binding affinity towards […] using [125I]- NKA radioligand expressed in rat duodenum at 100 nM
T2 sequence (whole entry): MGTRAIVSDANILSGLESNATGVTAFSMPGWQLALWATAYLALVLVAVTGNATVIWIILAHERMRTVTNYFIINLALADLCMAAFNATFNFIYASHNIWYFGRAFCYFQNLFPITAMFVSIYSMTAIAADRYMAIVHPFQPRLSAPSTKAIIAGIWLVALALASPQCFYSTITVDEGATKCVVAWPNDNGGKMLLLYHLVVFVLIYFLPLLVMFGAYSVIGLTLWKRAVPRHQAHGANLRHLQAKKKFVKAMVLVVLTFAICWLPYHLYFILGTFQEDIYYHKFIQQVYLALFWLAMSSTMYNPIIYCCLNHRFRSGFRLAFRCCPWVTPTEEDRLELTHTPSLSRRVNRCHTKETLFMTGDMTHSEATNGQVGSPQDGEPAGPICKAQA

Row | Structure (SMILES) | Kb (Oryctolagus cuniculus) | pIC50 (Substance-K receptor [1]) | pIC50 (Substance-K receptor [2]) | inhibition [3]
1 | CN(CC(CCN1CCCC(n2c(O)nc3ccccc32)CC1)c1ccc(Cl)c(Cl)c1)C(=O)c1ccccc1 (stereo not given) | 3.98 nM | 8.4 | – | –
2 | CN(CC(CCN1CCC(c2nc3ccccc3[nH]2)CC1)c1ccc(Cl)c(Cl)c1)C(=O)c1ccccc1 (stereo not given) | 50.1 nM | 7.3 | – | –
3 | O=S(=O)(c1ccccc1)N1CCC(CCN2CC(N3CCOCC3)C2)(c2ccc(Cl)c(Cl)c2)C1 (stereo not given) | 63.1 nM | 6.7 | – | –
4 | CN(CC(CCN1CCC(n2cnc3ccccc32)CC1)c1ccc(Cl)c(Cl)c1)C(=O)c1ccccc1 (stereo not given) | 2.51 nM | 8.1 | – | –
5 | CN(CC(CCN1CCC(O)(c2ccccc2)CC1)c1ccc(Cl)c(Cl)c1)C(=O)c1ccccc1 (stereo not given) | 0.316 nM | 8.9 | – | –
6 | CC(=O)NC1(c2ccccc2)CCN(CCC(CN(C)C(=O)c2ccccc2)c2ccc(Cl)c(Cl)c2)CC1 (stereo not given) | 0.794 nM | – | 8.9 | –
7 | O=C(c1ccccc1)N1CCC(CCN2CC(N3CCOCC3)C2)(c2ccc(Cl)c(Cl)c2)C1 (stereo not given) | – | 7.5 | – | –
8 | CN(CC(CCN1CCC(O)CC1)c1ccc(Cl)c(Cl)c1)C(=O)c1ccccc1 (stereo not given) | – | 6.4 | – | –
9 | O=C(c1ccccc1)N1CC(CCN2CC(N3CCOCC3)C2)(c2ccc(Cl)c(Cl)c2)C1 | 7.94 nM | 7.2 | – | –
10 | CN(CC(CCN1CC(n2ccnc2)C1)c1ccc(Cl)c(Cl)c1)C(=O)c1ccccc1 (stereo not given) | 25.1 nM | 6.8 | – | –
11 | CN(CC(CCN1CCC(n2cncn2)CC1)c1ccc(Cl)c(Cl)c1)C(=O)c1ccccc1 (stereo not given) | 79.4 nM | 6.8 | – | –
12 | CN(CC(CCN1CCCC(n2c(=O)[nH]c3ccccc32)C1)c1ccc(Cl)c(Cl)c1)C(=O)c1ccccc1 (stereo not given) | – | 7.1 | – | –
13 | CN(CC(CCN1CCC(O)(c2ncc[nH]2)CC1)c1ccc(Cl)c(Cl)c1)C(=O)c1ccccc1 (stereo not given) | – | 6.6 | – | –
14 | CN(CC(CCN1CC(N2CCOCC2)C1)c1ccc(Cl)c(Cl)c1)C(=O)c1ccccc1 (stereo not given) | 1.26 nM | 7.7 | – | –
15 | CN(CC(CCN1CCC(n2c(O)nc3ccccc32)CC1)c1ccc(Cl)c(Cl)c1)C(=O)c1ccccc1 (stereo not given) | 3.98 nM | 8.9 | – | 81%
16 | CCN(CC)C(=O)C1CCCN(CCC(CN(C)C(=O)c2ccccc2)c2ccc(Cl)c(Cl)c2)C1 (stereo not given) | – | – | – | 61%
17 | CN(CC(CCN1CCC(n2ccnc2)CC1)c1ccc(Cl)c(Cl)c1)C(=O)c1ccccc1 (stereo not given) | 5.01 nM | 7.7 | – | –
18 | CN(CC(CCN1CCCCC1)c1ccc(Cl)c(Cl)c1)C(=O)c1ccccc1 (stereo not given) | – | 6.3 | – | –
19 | CN(CC(CCN1CCC(c2ccccc2)CC1)c1ccc(Cl)c(Cl)c1)C(=O)c1ccccc1 (stereo not given) | – | < 7 | – | –
20 | COc1ccccc1C(=O)N1CCCC(CCN2CC(N3CCOCC3)C2)(c2ccc(Cl)c(Cl)c2)C1 (stereo not given) | 20 nM | – | – | –
21 | CN(CC(CCN1CCC(n2c(O)nc3ccccc32)C1)c1ccc(Cl)c(Cl)c1)C(=O)c1ccccc1 (stereo not given) | – | 7.4 | – | –
22 | O=C(CC1CC1)N1CCC(CCN2CC(N3CCOCC3)C2)(c2ccc(Cl)c(Cl)c2)C1 (stereo not given) | – | 6.3 | – | –
